Patent publication US20060078622A1, “Pharmaceutical formulations containing microparticles or nanoparticles of a delivery agent” (priority 2004, published 2006)

Assays:
[1] = Particle size determination by laser diffraction (Malvern Mastersizer 2000); format: physicochemical
Experimental: The terms “diameter” and “median particle size” are generally used to refer to the dimensions of particles, micro-beads, and granules. The “median particle size” or “diameter” was determined as follows for Examples 8, 9, 10.
The Malvern Mastersizer 2000 determines particle size by laser diffraction and model fitting. A well-dispersed sample in any two-phase system (e.g., powders, suspensions, or emulsions) is introduced into the path of a He—Ne laser focused with a lens of a length suitable for particle sizes present in the sample. The scattering pattern of particles in the laser path is measured by an array of detectors, with each detector measuring data from a particular range of angles.
The Malvern apparatus assumes that the particles being measured are perfect spheres. For non-spherical particles the resulting particle size distribution may be different from those obtained by methods based on others principles. The electronic measurements will often have to be accompanied by microscopic investigation to determine the type of particles being investigated. For irregularly shaped particles, the particle size data obtained from Mastersizer 2000 will be interpreted as the diameter of an imaginary sphere that is equivalent in volume to the measured particle. (Note: d(0.1) is the size of particle for which 10% of the sample is below this size, d(0.5) is the size of particle for which 50% of the sample is below this size, and d(0.9) is the size of particle for which 90% of the sample is below this size.
Generally, this apparatus measures one dimension of a, e.g., particle as it travels past a laser; i.e., it measures the length of a straight line through the particle. […] However, a measurement is taken of a number of particles and a median diameter or size is calculated. Thus, “size” or “diameter” figures are estimates of the median “size” or “diameter” of particles. Alternatively, “diameter” or “size” was measured by a sieve method described in Example 1. “Diameter” should not be read to necessarily imply a spherical shape or a circular dimension, though in certain embodiments, e.g., particles may have rounded edges or generally spherical shapes.
(§1) SNAD was screened through a 35 mesh Tyler standard sieve. The SNAD was milled with a Glen Mills, Model S100 centrifugal ball mill (Clifton, N.J.) equipped with a 250 mL stainless steel grinding jar and 30 mm (440 c) diameter stainless steel balls was used. The process parameters investigated were (1) number of balls used, (2) duration of milling, (3) milling speed, and (4) milling jar total charge. A Malvern Mastersizer 2000 equipped with a Scirocco 2000 dry accessory was used for particle size determination. A Kratos XRD 6000 (version 4.1) X-ray powder diffractometer scanning over the 2θ range 5-40° 2θ was used for monitoring crystallinity changes. The diverging, scattering, and receiving slits were 1°, 1°, and 0.3 mm respectively. A Brinkmann 737 KF coulometer was used for moisture content determination while a Quantachrome Nova 3000 Series Surface Area Analyzer was used for specific surface area determination.

[2] = X-ray powder diffraction and Karl Fischer moisture content after milling; format: physicochemical; conditions: ball milled
Experimental: as §1, with “The diverging, scattering, and receiving slits were 1°, 1°, and 0.3 mm respectively.” left out

[3] = acid and salts; cited from earlier work
[4] = in vivo; cited from earlier work
[5] = ball milled, milling time of 120 minutes

For O=C([O-])CCCCCCCCCNC(=O)c1ccccc1O.[Na+] [SNAD, monosodium salt of N-(10-[2-hydroxybenzoyl]-amino)decanoic acid], the “particle size d(0.9)” value ([1]; ball milled at 300 rpm) was 62.9 μm, the “particle size d(0.1)” value ([1]; ball milled, 2 balls) was 1.1 μm and the “particle size d(0.5)” value ([1]; ball milled, 2 balls) was 12.0 μm. The “particle size d(0.9)” value ([1]; ball milled, 2 balls) was 154.3 μm, the “particle size d(0.1)” value [1, 5] was 2.0 μm and the “particle size d(0.5)” value [1, 5] was 15.4 μm. For the same compound, the “particle size d(0.9)” value [1, 5] was 62.9 μm, the “particle size d(0.1)” value ([1]; pre-screened (unmilled)) was 1.6 μm and the “particle size d(0.5)” value ([1]; pre-screened (unmilled)) was 10.5 μm. The “particle size d(0.9)” value ([1]; pre-screened (unmilled)) was 314.9 μm, the “changes in moisture content on milling (Karl Fischer)” value [2] was “no significant changes in moisture content” and the “crystallinity changes on milling (powder X-ray diffraction)” value [2] was “did not result in crystallinity changes”.

For O=C(O)CCCCCCCNC(=O)c1cc(Cl)ccc1O [5 CNAC acid, N-(5-chlorosalicyloyl)-8-aminocaprylic acid], the water solubility [3] is listed as “very water soluble”.

For O=C(O)CCCCCCCCCNC(=O)c1ccccc1O [SNAD acid, N-(10-[2-hydroxybenzoyl]-amino) decanoic acid], the “absorbed by the gastro-intestinal tract” value [4] is listed as “greater than 90%”.

With O=C([O-])CCCCCCCNC(=O)c1ccccc1O.[Na+] [SNAC, monosodium salt of N-(8-[2-hydroxybenzoyl]-amino)caprylic acid] the “particle size d(0.5)” value ([1]; micronized, 2 balls at 200 rpm for 120 minutes) was 7.574 μm.
